US8148380B2, “Antibacterial amide and sulfonamide substituted heterocyclic urea compounds” (priority 2007, dated 2012)
≈ marks a conversion by molar mass, not a printed value.

Assays:
Type in all cases: cell-based
[1] = MIC90 against resistant Gram-positive bacteria
Procedure: (§1) Compounds of the present invention were tested for antibacterial activity against a variety of pathogenic organisms including S. aureus, S. pneumoniae, S. pyogenes, E. faecalis, H. influenza and M. catarrhalis using a standard broth microdilution method to determine their minimum inhibitory concentrations (MICs). All compounds were tested using standard methods in accordance with CLSI guidelines (Clinical and Laboratory Standards Institute). Compounds described in Examples 1, 3-6, 8, 10-17, 19-21, 24-31, 33, 36, 38, 40, 54, 56-57, 59-71, 74-105, 107-108, 110-112, 114, 117-120, 122-142, 144-159, 162-179, 181-182, 184-225, 227-242, 244-319, 321-355, and 357-475 had MIC's of <0.12-4.0 μg/mL against some strains of the major Gram-positive organisms S. aureus, S. pneumoniae, S. pyogenes, and E. faecalis. […] Compounds described in Examples 11, 54, 60, and 208 shown to be bactericidal in S. aureus, E. faecalis, E. faecium, S. pyogenes, S. epidermidis and S. pneumoniae.

[2] = tested on: MRSA, VISA, linezolid-resistant S. aureus, resistant S. epidermidis, S. pyogenes, S. pneumoniae, E. faecalis (VRE) and E. faecium; assay: MIC against drug-resistant Gram-positive strains; details: MRSA, VISA, linezolid-resistant S. aureus, resistant S. epidermidis, S. pyogenes, S. pneumoniae, E. faecalis (VRE), E. faecium
Procedure: as §1
(§2) Compounds of the present invention were not compromised by existing resistance to all drug classes tested, including β-lactams, glycopeptides, oxazolidinones, macrolides, and fluoroquinolones. In particular, compounds described in Examples 11, 54, 60, and 208 were active against methicillin-(oxacillin-) resistant S. aureus (MRSA), vancomycin-intermediate S. aureus (VISA), linezolid-resistant S. aureus, methicillin-(oxacillin-) resistant and mupirocin resistant S. epidermidis, macrolide-resistant S. pyogenes, macrolide-, penicillin-, and levofloxacin-resistant S. pneumoniae, vancomycin-, macrolide-, and ciprofloxacin-resistant E. faecalis (VRE) and vancomycin-, macrolide-, and ciprofloxacin-resistant E. faecium.

[3] = MIC against drug-resistant Gram-positive strains; details: read-out: MIC in clinically relevant resistant strains
Procedure: as §1, §2

[4] = tested on: S. aureus, E. faecalis, E. faecium, S. pyogenes, S. epidermidis and S. pneumoniae; assay: Bactericidal activity
Procedure: as §1

SMILES | MIC90 [1] | activity against drug-resistant strains [2] | MIC [3] | bactericidal [4]
Cc1ncnc(C)c1C(=O)N(C)Cc1csc(NC(=O)NCc2cccc(F)c2)n1 [Example 96, N-((2-(3-(3-fluorobenzyl)ureido)thiazol-4-yl)methyl)-N,4,6-trimethylpyrimidine-5-carboxamide] | 1 to 4 µg/mL (≈ 2.33 to 9.34 µM) | – | – | –
Cc1noc(C)c1C(=O)N(C)Cc1csc(NC(=O)NCc2cccc(F)c2)n1 [Example 54, N-((2-(3-(3-fluorobenzyl)ureido)thiazol-4-yl)methyl)-N,3,5-trimethylisoxazole-4-carboxamide] | 1 to 4 µg/mL (≈ 2.4 to 9.58 µM) | active | 0.25 to 4 µg/mL (≈ 0.599 to 9.58 µM) | bactericidal
CN(Cc1csc(NC(=O)NCc2cccc(F)c2)n1)C(=O)c1cc(O)nnc1Cl [Example 208, 3-Chloro-6-hydroxy-pyridazine-4-carboxylic acid {2-[3-(3-fluoro-benzyl)-ureido]-thiazol-4-ylmethyl}-methyl-amide] | 1 to 4 µg/mL (≈ 2.22 to 8.87 µM) | active | 0.25 to 4 µg/mL (≈ 0.554 to 8.87 µM) | bactericidal
CCc1noc(C)c1C(=O)N(C)Cc1csc(NC(=O)NCc2cccc(F)c2)n1 [Example 60, 3-ethyl-N-((2-(3-(3-fluorobenzyl)ureido)thiazol-4-yl)methyl)-N,5-dimethylisoxazole-4-carboxamide] | 1 to 4 µg/mL (≈ 2.32 to 9.27 µM) | active | 0.25 to 4 µg/mL (≈ 0.579 to 9.27 µM) | bactericidal
Cc1noc(C)c1C(=O)N(C)Cc1csc(NC(=O)NCc2ccc(Cl)c(Cl)c2)n1 [Example 11, N-((2-(3-(3,4-dichlorobenzyl)ureido)thiazol-4-yl)methyl)-N,3,5-trimethylisoxazole-4-carboxamide] | – | active | 0.25 to 4 µg/mL (≈ 0.534 to 8.54 µM) | bactericidal
Cc1noc(C)c1C(=O)N(C)Cc1csc(NC(=O)NCc2ccc(Cl)s2)n1 [Example 107, N-((2-(3-((5-chlorothiophen-2-yl)methyl)ureido)thiazol-4-yl)methyl)-N,3,5-trimethylisoxazole-4-carboxamide] | 1 to 4 µg/mL (≈ 2.27 to 9.09 µM) | – | – | –
Cc1noc(C)c1C(=O)N(C)C(C#N)c1csc(NC(=O)NCc2cccc(F)c2)n1 (stereo not drawn) [Example 214, 3,5-Dimethyl-isoxazole-4-carboxylic acid (cyano-{2-[3-(3-fluoro-benzyl)-ureido]-thiazol-4-yl}-methyl)-methyl-amide] | 1 to 4 µg/mL (≈ 2.26 to 9.04 µM) | – | – | –
